Measured values: patent US9676789B2, “Aminated derivative of homoharringtonine, preparation method therefor, and application thereof” (HANGZHOU BENSHENG PHARMACEUTICAL CO., LTD., priority 2011, dated 2017)
Values after ≈ are worked out from the molar mass of the structure shown.

Key:
[1] = test system: H9 (acute lymphoblastic leukemia, ALL); assay: MTT leukemia cell growth inhibition, 72 h; type: cell-based, human; conditions: Homo sapiens, H9, 72 h; for IC50: read-out: IC50; for IC90: read-out: IC90
Source text: (§1) Leukemia cell lines: K562/adr (drug-resistant, chronic myeloid leukemia, CML), NB4 (acute promyelocytic leukemia, AML), Kasumi-1 (acute myeloid leukemia M2 type, AML-M2), Jurkat (acute lymphoblastic leukemia, ALL), all of which are donated by Cancer Research Institute of Zhejiang University, China; and H9 (acute lymphoblastic leukemia, ALL), which is purchased from China Center for Type Culture Collection.
(§2) Obtaining 6000 well-growing leukemia cells and inoculating them into wells of a 96-well cell culture plate. The culture medium is the 1640 cell culture medium containing 10% fetal bovine serum. After adding the homoharringtonine derivatives of different concentrations and mixing uniformly, placing the plate in a carbon dioxide cell incubator (5% CO2) at 37° C. and incubating for 72 hours. Then the viable cell concentration is determined by the MTT method. In this experiment, the cell viability in control group (not treated with any compound) is set as 100%.

[2] = test system: Jurkat (acute lymphoblastic leukemia, ALL); assay: MTT leukemia cell growth inhibition, 72 h; type: cell-based, human; conditions: Homo sapiens; for IC50: read-out: IC50; for IC90: read-out: IC90
Source text: as §1, §2

[3] = test system: K562/adr (drug-resistant, chronic myeloid leukemia, CML); assay: MTT leukemia cell growth inhibition, 72 h; type: cell-based, human; conditions: Homo sapiens, K562/Adr; for IC50: read-out: IC50; for IC90: read-out: IC90
Source text: as §1, §2

[4] = test system: Kasumi-1 (acute myeloid leukemia M2 type, AML-M2); assay: MTT leukemia cell growth inhibition, 72 h; type: cell-based, human; conditions: Homo sapiens, Kasumi-1, 72 h; for IC50: read-out: IC50; for IC90: read-out: IC90
Source text: as §1, §2

[5] = test system: NB4 (acute promyelocytic leukemia, AML); assay: MTT leukemia cell growth inhibition, 72 h; type: cell-based, human; conditions: Homo sapiens, NB4, 72 h; for IC50: read-out: IC50; for IC90: read-out: IC90
Source text: as §1, §2

[6] = test system: RPMI8226 (multiple myeloma); assay: MTT multiple myeloma cell growth inhibition, 72 h; type: cell-based, human; conditions: Homo sapiens, RPMI-8226, RPMI8226, 72 h; for IC50: read-out: IC50; for IC90: read-out: IC90
Experimental: Multiple myeloma and lymphoma cell lines: RPMI8226 (multiple myeloma), purchased from Fuxiang Bio-tech Co. Ltd., Shanghai, China.
as §2, with “method.” for “method. In this experiment, the cell viability in control group (not treated with any compound) is set as 100%.”

A549 (human lung cancer) = assay: MTT solid tumor cell growth inhibition, 72 h; type: cell-based; conditions: Homo sapiens, A549, 72 h; for IC50: read-out: IC50; for IC90: read-out: IC90
Experimental: (§3) Human solid tumor cell lines: Hep-2 ([…]), A549 (human lung cancer), CaES-17 (esophageal cancer cell), PC-3 (prostate cancer), CNE (nasopharyngeal carcinoma cell), and SK-OV-3 (ovarian cancer cell), all of which are purchased from China Center For Type Culture Collection; RKO (human colon adenocarcinoma cell), MGC 803 (human gastric cancer cell), MG63 (osteosarcoma) and U87 MG (malignant glioma cell), all of which are purchased from Fuxiang Bio-tech Co. Ltd., Shanghai, China; PANC-1 (pancreatic cancer), Huh7 (human liver cancer cell), Becap37 (human breast cancer cell), and Hela (human cervical cancer cell), all of which are donated by Cancer Research Institute of Zhejiang University, China.
(§4) Obtaining 4000 well-growing human solid tumor cells and inoculating them into wells of a 96-well cell culture plate. The culture medium is DMEM High Glucose cell culture medium containing 10% fetal bovine serum. The plate is placed in a carbon dioxide cell incubator (5% CO2) at 37° C. and incubating for 24 hours. After adding the homoharringtonine derivatives of different concentration and mixing uniformly, the plate is placed in a carbon dioxide cell incubator (5% CO2) at 37° C. and incubating for 72 hours. Then the viable cell concentration is determined by the MTT method and the cell viability (%) after drug treatment is calculated. In this experiment, the cell viability of control group (not treated with any compound) is set as 100%.

[7] = test system: Becap37 (human breast cancer cell); assay: MTT solid tumor cell growth inhibition, 72 h; type: cell-based; conditions: Homo sapiens, Becap37, 72 h; for IC50: read-out: IC50; for IC90: read-out: IC90
Experimental: as §3, §4

[8] = test system: Huh7 (human liver cancer cell); assay: MTT solid tumor cell growth inhibition, 72 h; type: cell-based; conditions: Homo sapiens, Huh-7, Huh7, 72 h; for IC50: read-out: IC50; for IC90: read-out: IC90
Experimental: as §3, §4

MG63 (osteosarcoma) = assay: MTT solid tumor cell growth inhibition, 72 h; type: cell-based, human; conditions: Homo sapiens, MG 63, 72 h; for IC50: read-out: IC50; for IC90: read-out: IC90
Experimental: as §3, §4

[9] = test system: PANC-1 (pancreatic cancer); assay: MTT solid tumor cell growth inhibition, 72 h; type: cell-based, human; conditions: Homo sapiens, PANC-1, 72 h; for IC50: read-out: IC50; for IC90: read-out: IC90
Experimental: as §3, §4

[10] = test system: MGC 803 (human gastric cancer cell); assay: MTT solid tumor cell growth inhibition, 72 h; type: cell-based; conditions: Homo sapiens, MGC 803, 72 h; for IC50: read-out: IC50; for IC90: read-out: IC90
Experimental: as §3, §4

| Structure (SMILES) | IC50 [1] [µg/mL] | IC90 [1] [µg/mL] | IC50 [2] [µg/mL] | IC90 [2] [µg/mL] | IC50 [3] [µg/mL] | IC90 [3] [µg/mL] | IC50 [4] [µg/mL] | IC90 [4] [µg/mL] | IC50 [5] [µg/mL] | IC90 [5] [µg/mL] | IC50 [6] [µg/mL] | IC90 [6] [µg/mL] | IC50 (A549 (human lung cancer)) [µg/mL] | IC90 (A549 (human lung cancer)) [µg/mL] | IC50 [7] [µg/mL] | IC90 [7] [µg/mL] | IC50 [8] [µg/mL] | IC90 [8] [µg/mL] | IC50 (MG63 (osteosarcoma)) [µg/mL] | IC90 (MG63 (osteosarcoma)) [µg/mL] | other results |
| --- | --- | --- | --- | --- | --- | --- | --- | --- | --- | --- | --- | --- | --- | --- | --- | --- | --- | --- | --- | --- | --- |
| COC1=C[C@]23CCCN2CCc2cc4c(cc2[C@@H]3[C@@H]1OC(=O)[C@@](O)(CCCC(C)(C)O)CC(=O)N1CCCC(C)C1)OCO4 (stereo partly shown) [BS-HH-038] | 7.37 (≈ 12 µM) | > 16 | 1.47 (≈ 2.4 µM) | 16 (≈ 26.1 µM) | > 16 | > 16 | 2 (≈ 3.26 µM) | 12 (≈ 19.6 µM) | 0.32 (≈ 0.522 µM) | 4.24 (≈ 6.92 µM) | 1.22 (≈ 1.99 µM) | 16 (≈ 26.1 µM) | 5.72 (≈ 9.33 µM) | > 16 | 1.95 (≈ 3.18 µM) | > 16 | 16 (≈ 26.1 µM) | > 16 | 3.71 (≈ 6.05 µM) | > 16 | IC50 [9]: 8.83 µg/mL (≈ 14.4 µM); IC90 [9]: > 16 µg/mL |
| CCN1CCN(C(=O)C[C@](O)(CCCC(C)(C)O)C(=O)O[C@@H]2C(OC)=C[C@]34CCCN3CCc3cc5c(cc3[C@H]24)OCO5)CC1 [BS-HH-041] | 3.2 (≈ 5.1 µM) | > 16 | 0.89 (≈ 1.42 µM) | > 16 | > 16 | > 16 | 2.79 (≈ 4.44 µM) | 15 (≈ 23.9 µM) | 1.85 (≈ 2.95 µM) | 16 (≈ 25.5 µM) | 1.96 (≈ 3.12 µM) | 13.4 (≈ 21.3 µM) | 8.11 (≈ 12.9 µM) | > 16 | 0.9 (≈ 1.43 µM) | > 16 | 16 (≈ 25.5 µM) | > 16 | 1.97 (≈ 3.14 µM) | > 16 | IC50 [10]: 1 µg/mL (≈ 1.59 µM); IC90 [10]: 11.8 µg/mL (≈ 18.9 µM); IC50 [9]: 6.35 µg/mL (≈ 10.1 µM); IC90 [9]: > 16 µg/mL |
| COC1=C[C@]23CCCN2CCc2cc4c(cc2[C@@H]3[C@@H]1OC(=O)[C@@](O)(CCCC(C)(C)O)CC(=O)NCc1ccco1)OCO4 [BS-HH-043] | > 16 | > 16 | 13 (≈ 21.3 µM) | > 16 | > 16 | > 16 | 11.1 (≈ 18.1 µM) | > 16 | 15 (≈ 24.6 µM) | > 16 | > 16 | > 16 | > 16 | > 16 | > 16 | > 16 | > 16 | > 16 | > 16 | > 16 | IC50 [10]: > 16 µg/mL; IC90 [10]: > 16 µg/mL; IC50 [9]: > 16 µg/mL; IC90 [9]: > 16 µg/mL |
| COC1=C[C@]23CCCN2CCc2cc4c(cc2[C@@H]3[C@@H]1OC(=O)[C@@](O)(CCCC(C)(C)O)CC(=O)N1CCCCC1)OCO4 [BS-HH-051] | 7.26 (≈ 12.1 µM) | > 16 | 1.3 (≈ 2.17 µM) | > 16 | > 16 | > 16 | 2 (≈ 3.34 µM) | 16 (≈ 26.7 µM) | 1.5 (≈ 2.51 µM) | 16 (≈ 26.7 µM) | 1.7 (≈ 2.84 µM) | 16 (≈ 26.7 µM) | 6.96 (≈ 11.6 µM) | > 16 | 1.99 (≈ 3.32 µM) | > 16 | > 16 | > 16 | 2.72 (≈ 4.54 µM) | > 16 | IC50 [10]: 1.9 µg/mL (≈ 3.17 µM); IC90 [10]: 26.7 µg/mL (≈ 44.6 µM); IC50 [9]: 6.84 µg/mL (≈ 11.4 µM); IC90 [9]: > 16 µg/mL |
